What all share (format): biochemical
One test has as its target T1, LYPLA1 (Mus musculus, UniProt P97823).
T1 construct: a complex proteome endogenously expressing LYPLA1/2 was incubated with test compound; from tissue; host or cells: mouse brain, membrane fraction
In words: Gel-based competitive ABPP in vitro, mouse brain membrane proteome. Conditions: 30 min, one replicate; for inhibition at 0.1 µM: 0.1 μM compound, read-out: LYPLA1 % INH 0.1 μM; for inhibition at 1 µM: 1 μM compound, read-out: LYPLA1 % INH 1 μM; for inhibition at 10 µM: 10 μM compound, read-out: LYPLA1 % INH 10 μM; for inhibition at 100 µM: 100 μM compound, read-out: LYPLA1 % INH 100 μM. Here is the method: (§1) Assay Overview: The purpose of this assay was to determine whether test compounds can inhibit LYPLA1 and LYPLA2 in a complex proteomic lysate and to assess anti-target inhibition using a competitive activity-based proteomic profiling (ABPP) assay. In this assay, a complex proteome endogenously expressing LYPLA1/2 was incubated with test compound followed by reaction with a rhodamine-conjugated fluorophosphonate (FP-Rh) serine-hydrolase specific activity-based probe. The reaction products were separated by SDS-PAGE and visualized in-gel using a flatbed fluorescence scanner. The percentage activity remaining was determined by measuring the integrated optical density of the bands. […] Percent inhibition was calculated relative to a DMSO (no compound) control.
(§2) Protocol Summary: Mouse brain membrane proteome (50 μL reaction volume, 1 mg/mL in DPBS) was treated with 0.1-100 μM test compound (1 μL of a 50× stock in DMSO) for 30 minutes at 37° C. FP-Rh (1 μL of 50× stock in DMSO, Thermo #88318) was added to a final concentration of 2 μM. The reactions were incubated for 30 minutes at 25° C., quenched with 16 μL 4×SDS-PAGE loading buffer (reducing), separated by SDS-PAGE and visualized by in-gel fluorescent scanning. The percentage activity remaining was determined by measuring the integrated optical density of the bands relative to a DMSO-only (no compound) control. Assay Cutoff: Compounds with ≥50% inhibition of targets at 1 μM test compound concentration were considered active.
(§3) N-Hydroxy bicyclic hydantoin carbamates (Compounds 1-20) listed in Table 1 were subjected to gel-based competitive ABPP screening to assess SH reactivity against more than 20 FP-sensitive SHs visible by 1D SDS-PAGE separation and fluorescent detection in the mouse brain proteome (see FIG. 1). […] Compound treatment ([…], 30 minutes) was followed by labeling with SH-specific ABPP probe FP-Rh (2 μM, 30 minutes), 1D-SDS-PAGE, and in-gel fluorescent visualization of FP-labeled proteins. Assignment of LYPLA1/2 bands was based on correlation of molecular weights, expression and inhibition profiles with LC-MS/MS data and recombinant enzyme expression. Proteins were listed as anti-targets if at least 50% inhibition was observed as quantified relative to the DMSO control.
(§4) Compounds 1-20 were subjected to gel-based competitive ABPP profiling to assess potency and selectivity against several dozen FP-sensitive SHs in the mouse brain membrane proteome, which endogenously expresses LYPLA1 and LYPLA2, as well a diversity of potential SH anti-targets. Compounds were tested at 100 μM, 10 μM, 1 μM, and/or 0.1 μM compound concentration.

Another test has as its target T2, LYPLA2 (Mus musculus, UniProt Q9WTL7).
T2 construct: a complex proteome endogenously expressing LYPLA1/2 was incubated with test compound; from tissue; host or cells: mouse brain, membrane fraction
The test is described as above. The note with it: 30 min, one replicate; for inhibition at 0.1 µM: 0.1 μM compound, read-out: LYPLA2 % INH 0.1 μM; for inhibition at 1 µM: 1 μM compound, read-out: LYPLA2 % INH 1 μM; for inhibition at 10 µM: 10 μM compound, read-out: LYPLA2 % INH 10 μM; for inhibition at 100 µM: 100 μM compound, read-out: LYPLA2 % INH 100 μM. The procedure: as §1, §2, §3, §4

In test [1] the test system is FP-sensitive SHs in the mouse brain membrane proteome. In words: Gel-based competitive ABPP in vitro, mouse brain membrane proteome, anti-targets. Conditions: for Anti-target(s) 0.1 μM: SHs with at least 50% inhibition at 0.1 μM compound; for Anti-target(s) 1 μM: SHs with at least 50% inhibition at 1 μM compound; for Anti-target(s) 10 μM: SHs with at least 50% inhibition at 10 μM compound; for Anti-target(s) 100 μM: SHs with at least 50% inhibition at 100 μM compound. The procedure:
as §1, §2, §3, §4

“Also recorded” adds a separate entry of the source.

T1 sequence (P97823 whole entry): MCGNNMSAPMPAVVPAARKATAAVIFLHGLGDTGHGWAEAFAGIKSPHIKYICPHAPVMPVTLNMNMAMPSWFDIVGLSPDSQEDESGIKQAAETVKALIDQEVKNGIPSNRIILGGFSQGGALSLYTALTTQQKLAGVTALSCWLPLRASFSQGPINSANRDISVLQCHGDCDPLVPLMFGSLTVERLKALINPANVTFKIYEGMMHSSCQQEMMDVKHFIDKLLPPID
T2 sequence (Q9WTL7 whole entry): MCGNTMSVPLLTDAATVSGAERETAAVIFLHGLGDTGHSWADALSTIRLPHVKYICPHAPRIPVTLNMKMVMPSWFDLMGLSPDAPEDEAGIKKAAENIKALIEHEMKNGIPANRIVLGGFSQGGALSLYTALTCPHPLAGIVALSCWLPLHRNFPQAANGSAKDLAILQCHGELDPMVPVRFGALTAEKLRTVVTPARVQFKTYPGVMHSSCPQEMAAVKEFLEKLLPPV

On to `O=C(ON1C(=O)C2CN(CCc3ccccc3)CCN2C1=O)N1CCC(CCc2ccc(Cl)cc2)CC1` (stereo not drawn) [Compound 12, 1,3-dioxo-7-phenethylhexahydroimidazo[1,5-a]pyrazin-2(3H)-yl 4-(4-chlorophenethyl)piperidine-1-carboxylate], for which, at LYPLA1, the inhibition at 0.1 µM is 0%, the inhibition at 1 µM turned out to be 25%, the inhibition at 10 µM was 95% and the inhibition at 100 µM came to 100%. Further, on LYPLA2, the inhibition at 0.1 µM worked out at 0%, the inhibition at 1 µM stood at 25%, the inhibition at 10 µM turned out to be 95% and the inhibition at 100 µM is 100%. Moreover, in test [1], the “Anti-target(s) 0.1 μM” value is listed as “ABHD6”, the “Anti-target(s) 1 μM” value is given as “ABHD6”, the “Anti-target(s) 10 μM” value is reported as “FAAH,; also recorded: ABHD4,; also recorded: MAGL,; also recorded: ABHD6” and the “Anti-target(s) 100 μM” value is “FAAH,; also recorded: ABHD4,; also recorded: MAGL,; also recorded: ABHD6”.
As for `O=C(ON1C(=O)C2CN(C(=O)c3ccc(F)c([N+](=O)[O-])c3)CCN2C1=O)N1CCC(CCc2ccc(Cl)cc2)CC1` (stereo not drawn) [Compound 9, 7-(4-fluoro-3-nitrobenzoyl)-1,3-dioxohexahydroimidazo[1,5-a]pyrazin-2(3H)-yl 4-(4-chlorophenethyl)piperidine-1-carboxylate], on LYPLA1, the inhibition at 1 µM came out at 90%, the inhibition at 10 µM turned out to be 100% and the inhibition at 100 µM was found to be 100%. Also, at LYPLA2, the inhibition at 1 µM amounted to 90%, the inhibition at 10 µM was determined as 100% and the inhibition at 100 µM was 100%. In test [1], the “Anti-target(s) 1 μM” value is “ABHD6”, the “Anti-target(s) 10 μM” value was “FAAH,; also recorded: ABHD12,; also recorded: ABHD6” and the “Anti-target(s) 100 μM” value is listed as “FAAH,; also recorded: ABHD12,; also recorded: MAGL,; also recorded: ABHD6”.
`CC(C)(C)OC(=O)N1CCN2C(=O)N(OC(=O)N3CCOCC3Cc3ccccc3)C(=O)C2C1` (stereo not drawn) [Compound 16, 7-(tert-butoxycarbonyl)-1,3-dioxohexahydroimidazo[1,5-a]pyrazin-2(3H)-yl 3-benzylmorpholine-4-carboxylate]: at LYPLA1, the inhibition at 0.1 µM was determined as 0%, the inhibition at 1 µM was 0%, the inhibition at 10 µM turned out to be 0% and the inhibition at 100 µM worked out at 0%. Besides, on LYPLA2, the inhibition at 0.1 µM amounted to 0%, the inhibition at 1 µM was 0%, the inhibition at 10 µM was 0% and the inhibition at 100 µM stood at 0%. For the same compound, in test [1], the “Anti-target(s) 0.1 μM” value is on record as “none”, the “Anti-target(s) 1 μM” value is “none”, the “Anti-target(s) 10 μM” value was “ABHD6” and the “Anti-target(s) 100 μM” value is recorded as “ABHD6”.
With `Cc1ccc(C(=O)N2CCN3C(=O)N(OC(=O)N4CCC(CCc5ccc(Cl)cc5)CC4)C(=O)C3C2)cc1` (stereo not drawn) [Compound 8, 7-(4-methylbenzoyl)-1,3-dioxohexahydroimidazo[1,5-a]pyrazin-2(3H)-yl 4-(4-chlorophenethyl)piperidine-1-carboxylate], on LYPLA1, the inhibition at 1 µM amounted to 75%, the inhibition at 10 µM turned out to be 100% and the inhibition at 100 µM was 100%. Also, on LYPLA2, the inhibition at 1 µM worked out at 75%, the inhibition at 10 µM was 100% and the inhibition at 100 µM came out at 100%. Also, in test [1], the “Anti-target(s) 1 μM” value is “ABHD6”, the “Anti-target(s) 10 μM” value is “FAAH,; also recorded: ABHD12,; also recorded: ABHD6” and the “Anti-target(s) 100 μM” value is recorded as “FAAH,; also recorded: ABHD12,; also recorded: MAGL,; also recorded: ABHD6”.
Take `CC(C)(C)OC(=O)N1CCN2C(=O)N(OC(=O)N3CCN(C(c4ccc(Cl)cc4)c4ccc(Cl)cc4)CC3)C(=O)C2C1` (stereo not drawn) [Compound 18, tert-butyl 2-(4-(bis(4-chlorophenyl)methyl)piperazine-1-carbonyloxy)-1,3-dioxohexahydroimidazo[1,5-a]pyrazine-7(1H)-carboxylate]: on LYPLA1, the inhibition at 0.1 µM stood at 0%, the inhibition at 1 µM is 10%, the inhibition at 10 µM is 50% and the inhibition at 100 µM amounted to 60%. Further, on LYPLA2, the inhibition at 0.1 µM was found to be 0%, the inhibition at 1 µM is 10%, the inhibition at 10 µM worked out at 50% and the inhibition at 100 µM amounted to 60%. Also, in test [1], the “Anti-target(s) 0.1 μM” value is “ABHD6”, the “Anti-target(s) 1 μM” value is reported as “ABHD6”, the “Anti-target(s) 10 μM” value is listed as “ABHD6” and the “Anti-target(s) 100 μM” value is given as “ABHD6”.
For `CN(C)c1ccc(C(=O)N2CCN3C(=O)N(OC(=O)N4CCC(CCc5ccc(Cl)cc5)CC4)C(=O)C3C2)cc1` (stereo not drawn) [Compound 10, 7-(4-(dimethylamino)benzoyl)-1,3-dioxohexahydroimidazo[1,5-a]pyrazin-2(3H)-yl4-(4-chlorophenethyl)piperidine-1-carboxylate], at LYPLA1, the inhibition at 1 µM was 75%, the inhibition at 10 µM stood at 100% and the inhibition at 100 µM is 100%. At LYPLA2, the inhibition at 1 µM was found to be 75%, the inhibition at 10 µM amounted to 100% and the inhibition at 100 µM worked out at 100%.
For `CCN(C(=O)C1CCN(C(=O)ON2C(=O)C3CN(C(=O)OC(C)(C)C)CCN3C2=O)CC1)c1ccccc1` (stereo not drawn) [Compound 20, tert-butyl 2-(4-(ethyl(phenyl)carbamoyl)piperidine-1-carbonyloxy)-1,3-dioxohexahydroimidazo[1,5-a]pyrazine-7(1H)-carboxylate], at LYPLA1, the inhibition at 0.1 µM was determined as 0%, the inhibition at 1 µM stood at 10%, the inhibition at 10 µM was 100% and the inhibition at 100 µM is 100%. Moreover, on LYPLA2, the inhibition at 0.1 µM was 0%, the inhibition at 1 µM worked out at 10%, the inhibition at 10 µM was 75% and the inhibition at 100 µM was 100%. In test [1], the “Anti-target(s) 0.1 μM” value was “ABHD6”, the “Anti-target(s) 1 μM” value was “ABHD6”, the “Anti-target(s) 10 μM” value was “ABHD6” and the “Anti-target(s) 100 μM” value is reported as “ABHD6”.
Regarding `CC(C)(C)OC(=O)N1CCN2C(=O)N(OC(=O)N3CCC(C(=O)Nc4ccccc4)CC3)C(=O)C2C1` (stereo not drawn) [Compound 19, tert-butyl 1,3-dioxo-2-(4-(phenylcarbamoyl)piperidine-1-carbonyloxy)hexahydroimidazo[1,5-a]pyrazine-7(1H)-carboxylate], on LYPLA1, the inhibition at 0.1 µM is 0%, the inhibition at 1 µM turned out to be 0%, the inhibition at 10 µM came to 10% and the inhibition at 100 µM is 50%. On LYPLA2, the inhibition at 0.1 µM came to 0%, the inhibition at 1 µM turned out to be 0%, the inhibition at 10 µM is 0% and the inhibition at 100 µM is 25%. Moreover, in test [1], the “Anti-target(s) 0.1 μM” value is reported as “ABHD6”, the “Anti-target(s) 1 μM” value is “ABHD6”, the “Anti-target(s) 10 μM” value was “ABHD6” and the “Anti-target(s) 100 μM” value is recorded as “FAAH,; also recorded: ABHD6”.

The values are drawn from patent US9981972B2, “N-hydroxy bicyclic hydantoin carbamates as tools for identification of serine hydrolase targets” (ABIDE THERAPEUTICS, INC., priority 2014, dated 2018).
